Test results as given in patent US12310944B2 (priority 2019, dated 2025).
Read-outs that look alike come from different tables or passages of the source.

Legend:
[1] = system: PC-12 neural cell line; assay: Toxicity test in PC-12 nerve cell (MTT); type: cell-based; settings: PC-12 cells; for SR(%) cell survival rate, 20 μM: 20 μM compound for 24 h; for SR(%) cell survival rate, 50 μM: 50 μM compound for 24 h
Protocol: Toxicity Test in PC-12 Nerve Cell:
Drugs and reagents: Test compounds, DMEM medium (01-050-1A) purchased from Biological Industries, FBS fetal bovine serum (04-001-1A) purchased from Biological Industries, MTT thiazolyl blue reagent (KGT525500) purchased from KeyGEN BioTECH.
(§1) Instrument: THERMO Varioskan Flash full-wavelength multifunctional microplate reader.
About 3×10^3 PC-12 cells were evenly mixed in 0.1 mL of DMEM medium containing 10% FBS, and plated on a 96-well bottom plate, and incubated overnight at 37° C. in an environment containing 5% CO2. The 20 μM and 50 μM compounds diluted in 0.1 mL of DMEM medium were treated on the cells for 24 hours. Then MTT reagent was added to the well plate, and the plate was incubated at 37° C. for 2 to 4 hours. The color reaction was measured at 492 nm using a spectrophotometer (Thermo, multiskan FC).

[2] = target: T1, eqBuChE (BuChE, E.C.3.1.1.8, selected from horse serum) (Equus caballus, UniProt P81908); assay: Cholinesterase inhibitory activity (DTNB/BTC), eqBuChE; type: biochemical
T1 construct: BuChE (E.C.3.1.1.8, selected from horse serum); purchased Sigma; host or cells: horse serum
T1 sequence (P81908 whole entry): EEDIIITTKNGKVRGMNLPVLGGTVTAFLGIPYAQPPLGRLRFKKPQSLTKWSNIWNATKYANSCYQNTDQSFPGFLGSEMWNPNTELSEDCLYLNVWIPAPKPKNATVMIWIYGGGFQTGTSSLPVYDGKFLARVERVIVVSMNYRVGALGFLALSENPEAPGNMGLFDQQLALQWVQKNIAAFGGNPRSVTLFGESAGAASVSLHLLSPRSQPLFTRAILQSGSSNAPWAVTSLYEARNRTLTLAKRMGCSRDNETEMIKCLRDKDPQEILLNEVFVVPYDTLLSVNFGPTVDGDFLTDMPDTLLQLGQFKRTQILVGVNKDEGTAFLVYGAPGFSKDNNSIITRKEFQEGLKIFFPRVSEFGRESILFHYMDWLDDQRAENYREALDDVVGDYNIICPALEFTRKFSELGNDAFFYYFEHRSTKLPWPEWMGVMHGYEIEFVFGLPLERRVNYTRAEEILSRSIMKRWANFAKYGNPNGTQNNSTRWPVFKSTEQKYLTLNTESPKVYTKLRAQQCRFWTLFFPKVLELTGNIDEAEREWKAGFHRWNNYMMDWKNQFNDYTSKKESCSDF
From the text: Determination of Cholinesterase Inhibitory Activity:
Drugs and reagents: Test compounds, AChE (E.C.3.1.1.7, Type VI-S, selected from electric eel), BuChE (E.C.3.1.1.8, selected from horse serum), 5,5′-dithiobis(2-nitrobenzoic acid) (DTNB), acetylthiocholine (ATC) iodide and butyrylthiocholine (BTC) iodide were all purchased from Sigma; the positive control tacrine hydrochloride (9-amino-1,2,3,4-tetrahydroacridine hydrochloride hydrate) was purchased from BioTrend.
as §1
(1) Formulation of buffer: 13.6 g of potassium dihydrogen phosphate was dissolved in 1 L of water, and pH was adjusted with potassium hydroxide to reach pH=8±0.1. The solution was stored at 4° C. for later use.
(2) Formulation of 0.01 M DTNB solution: 0.396 g of DTNB and 0.15 g of sodium bicarbonate were dissolved in 100 mL of water to prepare a 0.01 M DTNB solution, which was stored at −30° C. for later use.
(3) Formulation of 0.075 M ATC and BTC solutions: 0.217 g of ATC was dissolved in 10 mL of water to prepare a 0.075 M ATC solution, which was stored at −30° C. for later use; 0.237 g of BTC was dissolved in 10 mL of water to prepare a 0.075 M BTC solution, which was stored at −30° C. for later use.
(4) Formulation of AChE and BuChE solutions: 5,000 units of AChE were dissolved in 1 mL of 1% gel solution, and then diluted to 100 mL with water to prepare a AChE solution with a concentration of 5 units/mL, which was stored at −30° C. for later use; 5,000 units of BuChE were dissolved in 1 mL of 1% gel solution, and then diluted to 100 mL with water to prepare a BuChE solution with a concentration of 5 units/mL, which was stored at −30° C. for later use.
(5) Formulation of test substance solution: The test compound was dissolved in ethanol to obtain a solution with a concentration of 10^−3 M (ethanol would not affect the test results), and then diluted with water to prepare solutions with concentrations of […], 10^−5, 10^−6, 10^−7, 10^−8, 10^−9, and 10^−10 M, respectively.
Before the start of the experiment, all the solutions as used were warmed to room temperature, and the AChE and BuChE solutions were diluted 1-fold with water to prepare an enzyme solution with a concentration of 2.5 units/mL. The background UV absorbance was measured with a blank buffer (3 mL) as a subtraction value. Firstly, 100 μL of test compound solution, 100 μL of DTNB solution, and 100 μL of enzyme solution were added to 3 mL of buffer. After adding 20 μL of ATC or BTC solution to trigger the reaction, the time was recorded immediately and the test solution was mixted quickly and uniformly at the same time. After 2 minutes, the UV absorbance was measured at a wavelength of […]. The blank control group was measured with an equal volume of water instead of the test substance solution. All tests were performed three times in parallel. The UV absorption value of the blank control group was taken as 100%, the absorbance (OD value) of the test compound at each concentration was recorded, and GraphPad Prism™ (GraphPad Software, San Diego, CA, USA) software was used to analyze the results in a non-linear regression analysis model to calculate the corresponding IC50 values, as shown in Table 1.

[3] = target: hBuChE (Homo sapiens, UniProt P06276); assay: Cholinesterase inhibitory activity (DTNB/BTC), hBuChE; type: biochemical; settings: mean ± SEM
[4] = eqBuChE, mean ± SEM, three parallel tests
[5] = read-out: IC50 (nM) ± SEM eqBuChE

| SMILES | SR(%) cell survival rate, 20 μM [1] [%] | SR(%) cell survival rate, 50 μM [1] [%] | IC50 [2, 4] [nM] | IC50 [3] [nM] | IC50 [2, 5] [nM] | inhibition at 10 µM ([2]; read-out: inhibition rate of the compound on the target at a concentration of 10 μM (eqBuChE)) [%] |
| --- | --- | --- | --- | --- | --- | --- |
| CCN(CC)Cc1ccccc1CNC(=O)c1cccc(NC(=O)c2cccs2)c1 [Compound 1, N-(3-((2-((diethylamino)methyl)benzyl)carbamoyl)phenyl)thiophene-2-carboxamide] | 97.36 | 84.34 | 0.13 ± 0.01 | 0.42 ± 0.07 | – | – |
| CN(C)Cc1ccccc1NC(=O)c1cccc(NC(=O)c2cccs2)c1 [Compound 2, N-(3-((2-((dimethylamino)methyl)phenyl)carbamoyl)phenyl)thiophene-2-carboxamide] | 94.30 | 91.45 | 1910 ± 983 | – | – | – |
| CCN(CC)Cc1ccccc1NC(=O)c1cccc(NC(=O)c2cccs2)c1 [Compound 3, N-(3-((2-((diethylamino)methyl)phenyl)carbamoyl)phenyl)thiophene-2-carboxamide] | 95.23 | 89.64 | 481 ± 110 | – | – | – |
| CCCN(CCC)Cc1ccccc1NC(=O)c1cccc(NC(=O)c2cccs2)c1 [Compound 4, N-(3-((2-((dipropylamino)methyl)phenyl)carbamoyl)phenyl)thiophene-2-carboxamide] | 87.24 | 79.48 | – | – | 122 ± 285 | – |
| CCN(CC)Cc1ccccc1CNC(=O)c1cccc(NC(=O)c2ccc[nH]2)c1 [Compound 5, N-(3-((2-((diethylamino)methyl)benzyl)carbamoyl)phenyl)-pyrrole-2-carboxamide] | 97.53 | 92.47 | – | 2.99 ± 0.67 | 0.87 ± 0.03 | – |
| CCN(CC)Cc1ccccc1CNC(=O)c1cccc(NC(=O)c2ccco2)c1 [Compound 6, N-(3-((2-((diethylamino)methyl)benzyl)carbamoyl)phenyl)furan-2-carboxamide] | 95.37 | 81.46 | 0.79 ± 0.09 | 0.63 ± 0.13 | – | – |
| CCN(CC)Cc1ccccc1CNC(=O)c1cccc(NC(=O)c2ccccn2)c1 [Compound 7, N-(3-((2-((diethylamino)methyl)benzyl)carbamoyl)phenyl)-pyridineamide] | 92.36 | 75.46 | – | 0.78 ± 0.63 | 0.34 ± 0.02 | – |
| CCN(CC)Cc1ccccc1CNC(=O)c1cccc(NC(=O)c2nccs2)c1 [Compound 8, N-(3-((2-((diethylamino)methyl)benzyl)carbamoyl)phenyl)-thiazole-2-carboxamide] | 93.57 | 89.42 | – | 1.88 ± 0.52 | 0.75 ± 0.14 | – |
| CCN(CC)Cc1ccccc1CNC(=O)c1cccc(NC(=O)c2ncc[nH]2)c1 [Compound 9, N-(3-((2-((diethylamino)methyl)benzyl)carbamoyl)phenyl)-imidazole-2-carboxamide] | 80.36 | 70.74 | – | 1.91 ± 0.24 | 0.52 ± 0.1 | – |
| CCN(CC)Cc1ccccc1CNC(=O)c1cccc(NC(=O)C2CCCCC2)c1 [Compound 10, 3-(cyclohexanecarboxamido)-N-(2-((diethylamino)methyl)benzyl)benzamide] | 90.23 | 83.22 | – | – | 122 ± 15.4 | – |
| CCN(CC)Cc1ccccc1CNC(=O)c1cccc(NC(=O)c2ccccc2)c1 [Compound 11, 3-benzamido-N-(2-((diethylamino)methyl)benzyl)benzamide] | 96.30 | 83.4 | – | 0.99 ± 0.18 | 0.48 ± 0.07 | – |
| CCN(CC)Cc1ccccc1CNC(=O)c1cccc(NC(=O)c2ccc(O)cc2)c1 [Compound 12, N-(2-((diethylamino)methyl)benzyl)-3-(4-hydroxybenzamido)benzamide] | 91.46 | 89.64 | – | 2.45 ± 0.37 | 0.79 ± 0.19 | – |
| CCN(CC)Cc1ccccc1CNC(=O)c1cccc(NC(=O)c2ccc(C(=O)O)cc2)c1 [Compound 13, 4-((3-((2-((diethylamino)methyl)benzyl)carbamoyl)phenyl)carbamoyl)benzoic acid] | 91.46 | 75.25 | – | 3.4 ± 0.31 | 0.76 ± 0.09 | – |
| CCN(CC)Cc1ccccc1CNC(=O)c1cccc(NC(=O)c2ccc(C=O)cc2)c1 [Compound 14, N-(2-((diethylamino)methyl)benzyl)-3-(4-formanilide)benzamide] | 86.34 | 81.34 | – | 2.09 ± 0.99 | 0.89 ± 0.63 | – |
| CCN(CC)Cc1ccccc1CNC(=O)c1cccc(NC(=O)c2ccc(F)cc2)c1 [Compound 15, N-(2-((diethylamino)methyl)benzyl)-3-(4-fluorobenzamido)benzamide] | 93.57 | 84.35 | 0.15 ± 0.06 | 1.44 ± 1.66 | – | – |
| CCN(CC)Cc1ccccc1CNC(=O)c1cccc(NC(=O)c2ccc(F)c(F)c2)c1 [Compound 16] | 95.72 | 89.53 | – | 0.57 ± 0.1 | 0.3 ± 0.07 | – |
| CCN(CC)Cc1ccccc1CNC(=O)c1cccc(NC(=O)c2cccc(F)c2)c1 [Compound 17, N-(2-((diethylamino)methyl)benzyl)-3-(3-fluorobenzamido)benzamide] | 98.40 | 89.75 | 4.55 ± 0.74 | 25.2 ± 19.1 | – | – |
| CCN(CC)Cc1ccccc1CNC(=O)c1cccc(NC(=O)c2ccccc2F)c1 [Compound 18, N-(3-((2-((diethylamino)methyl)benzyl)carbamoyl)phenyl)-2-fluorobenzamide] | 80.26 | 73.56 | – | 17.4 ± 1.98 | 3.5 ± 1.1 | – |
| CCN(CC)Cc1ccccc1CNC(=O)c1cccc(NC(=O)c2ccc(Cl)cc2)c1 [Compound 19, 3-(4-chlorobenzamido)-N-(2-((diethylamino)methyl)benzyl)benzamide] | 90.43 | 79.24 | – | 0.83 ± 0.39 | 0.34 ± 0.21 | – |
| CCN(CC)Cc1ccccc1CNC(=O)c1cccc(NC(=O)c2ccc(Br)cc2)c1 [Compound 20, 3-(4-bromobenzamido)-N-(2-((diethylamino)methyl)benzyl)benzamide] | 94.00 | 85.21 | – | 1.91 ± 0.59 | 0.98 ± 0.62 | – |
| O=C(NCc1ccccc1)c1cccc(NC(=O)c2cccs2)c1 [Compound 36] | 89.57 | 77.42 | – | – | – | 27.2 |
